Reference: patent US20070003510A1, “Preparations containing an extract of eperua falcata and/or constituents of the latter” (priority 2003, published 2007)

Tests used:
Assay type in all cases: cell-based
[1] = test system: CGRP; assay: Quantity of neuropeptide CGRP released by neurone culture, ELISA (spontaneous, KCl- or capsaicin-stimulated); conditions: KCl 40 mM alone, 20 mins; based on the standard (no test substance) = 100
[2] = test system: PGE2; assay: Protection against UV-B radiation: PGE2 release from human keratinocytes, ELISA; conditions: 0.003%, UV-B 50 mJ/cm^2, UV-B alone = 100, no UV-B = 0
From the text: UV-B radiation (wavelength 280 to 320 nm) causes inflammation of the skin, mainly by activation of an enzyme (phospholipase A2 or PLA2) which releases arachidonic acid from the cell membrane (V. A. De Leo, D. Hanson, I. B. Weinstein and L. C. Harber, Ultraviolet radiation stimulates the release of arachidonic acid from mammalian cells in culture, Photochemistry and Photobiology (1985), Vol. 41, No. 1, pages 51 to 56). Other enzymes (so-called cyclo-oxygenases) then convert the arachidonic acid into active components, so-called prostaglandin (PG for short). The prostaglandin is secreted by the cells. The fixing of certain prostaglandins (PGE2) to specific receptors of the skin leads to reddening and swelling of the skin in the same way as sunburn does.
(§1) Human keratinocytes were incubated for three days at 37° C. in an atmosphere containing 5% by volume carbon dioxide (standard nutrient medium containing foetal calf serum (FCS)). The nutrient medium was then replaced by an isotonic common salt solution containing the substance to be tested (astilbin or engeletin). The keratinocytes were exposed to UV-B radiation (50 mJ/cm^2, DUKE GL40E lamp), followed by incubation for one day at 37° C. in an atmosphere containing 5% by volume carbon dioxide. The supernatant nutrient medium was spectroscopically analyzed for LDH2 and PEG2 by the ELISA method.
(§2) The results are set out in the following Table (% by comparison with the control test).

[3] = test system: human PMNs; assay: Respiratory burst: reactive oxygen compounds (ROS) of zymosan-activated human PMNs, luminol luminescence; conditions: for Content of reactive oxygen compounds (ROS) (% versus control): 24 h incubation, zymosan activation; for Effectiveness in suppressing inflammatory processes: in words, effectiveness increases with the quantity used
From the text: In the course of cutaneous inflammation, leucocytes, for example polymorphonuclear neutrophilic granulocytes (PMNs), are attracted and stimulated by peptides, such as cytokines and other messenger substances such as, for example, leudotrienes released from activated or necrotic cells in the dermis. These stimulated PMNs secrete not only pro-inflammatory cytokines, leucotrienes and proteases, but also reactive oxygen compounds (ROS), such as superoxides and hypochlorite anions for example. This is done to destroy pathogenic bacteria or fungi. This activity of the PMNs is known as respiratory burst and intensifies the inflammation reaction and causes tissue damage through released ROS and lysosomal enzymes.
Particulars of the test procedure can be found in the article by Kapp et al. entitled “The role of immunomodulating cytokines, activation of the oxidative metabolism in human polymorphonuclear neutrophilic granulocytes, Journal of Investigative Dermatology, Vol. 95, pages 94S to 99S, 1990”.
A suspension of human PMNs (1 million cells per milliliter) was exposed to the substances to be tested (incubation for 24 h at 37° C. in an atmosphere containing 5% by volume CO2). The number of PMN cells was determined. The PMNs were activated with 0.1 ml zymosan (an insoluble carbohydrate from the cell wall of yeast), followed by incubation for 0.5 h at 37° C. in an atmosphere containing 5% by volume CO2).
The results are set out in the following Table (% by comparison with the control test). The quantity of ROS was measured with luminol; luminescence was determined for 60 seconds.

[4] = test system: human keratinocytes; assay: Protection against UV-B radiation: LDH release from human keratinocytes; conditions: 0.003%, UV-B 50 mJ/cm^2, UV-B alone = 100, no UV-B = 0
Method: In cultured human cells, these effects of UV-B radiation on the cell membranes are associated with the release of a cytoplasmatic enzyme into the supernatant solution. This cytoplasmatic enzyme is lactate dehydrogenase or LDH (B. Bonnekoh, B. Farkas, J. Geisel and G. Mahrle, Lactate dehydrogenase release as an indicator of dithranol-induced membrane injury in cultured human keratinocytes, Dermatological Research (1990), Vol. 282, pages 325-331).
as §1, §2

[Cl-].[K+] [KCl, potassium chloride]
CGRP [1]: 554 ± 8

C[C@@H]1O[C@@H](O[C@H]2C(=O)c3c(O)cc(O)cc3O[C@@H]2c2ccc(O)c(O)c2)[C@H](O)[C@H](O)[C@H]1O [Pure astilbin, astilbin]
Quantity of PGE2 in %/(control without UV-B exposure) [2]: 58%
Quantity of PGE2 in %/(control without UV-B exposure) ([2]; listed as astilbin): reduced
Content of reactive oxygen compounds (ROS) (% versus control) ([3]; dose 0.0003%): 47 % versus control
Content of reactive oxygen compounds (ROS) (% versus control) ([3]; dose 0.001%): 26 % versus control
Content of reactive oxygen compounds (ROS) (% versus control) ([3]; dose 0.003%): 14 % versus control
Effectiveness in suppressing inflammatory processes [3]: very effective
Quantity of LDH in %/(control without UV-B exposure) [4]: 58%
Quantity of LDH in %/(control without UV-B exposure) ([4]; listed as astilbin): reduced

CC1OC(OC2C(=O)c3c(O)cc(O)cc3OC2c2ccc(O)cc2)C(O)C(O)C1O (centres unmarked) [Pure engeletin, engeletin]
Quantity of PGE2 in %/(control without UV-B exposure) [2]: 35%
Quantity of PGE2 in %/(control without UV-B exposure) ([2]; listed as engeletin): the effect is not as pronounced
Content of reactive oxygen compounds (ROS) (% versus control) ([3]; dose 0.001%): 65 % versus control
Content of reactive oxygen compounds (ROS) (% versus control) ([3]; dose 0.003%): 50 % versus control
Content of reactive oxygen compounds (ROS) (% versus control) ([3]; dose 0.01%): 25 % versus control
Effectiveness in suppressing inflammatory processes [3]: very effective
Quantity of LDH in %/(control without UV-B exposure) [4]: 47%
Quantity of LDH in %/(control without UV-B exposure) ([4]; listed as engeletin): the effect is not as pronounced
